Test results published in patent US20220387345A1, “ANTI-CANCER COMPOUNDS ACTING AS NON-PGP SUBSTRATE” (ASCENTAWITS PHARMACEUTICALS, LTD., priority 2019, published 2022).
Read-outs that look alike come from different tables or passages of the source.

Assays:
[1] = test system: H460; experiment: In vitro proliferation of NSCLC human tumor line H460, without or with specific AKR1C3 inhibitor; format: cell-based; details: H460 cells
Description: The cytotoxicity analysis of the human tumor cell lines in vitro was used.
IC50 (half maximal inhibitory concentration) values were in nanomoles and were obtained by the following. Cells were exposed in the compounds with different concentration for 2 hours. The compounds were washed off, and fresh medium was added into plates. A growth rate and a cell-survival rate were obtained by cell staining and compared with a control group treated with the medium only.
The compound was dissolved in 100% DMSO at 200 times of the desired final test concentration. When the drug was added, the compound was further diluted at 4 times of the desired final test concentration by the complete medium. 50 μL aliquots of the compound with specific concentration were added to the microwells contained 150 μL of medium, and then the final drug concentration was obtained. […] After the incubation was finished, the Alamar Blue was used to analyze and quantify the alive cells.
Before 2 h of the compound was prepared, the compound with the inhibitor was added to the cell culture. The inhibitor was […]

[2] = target: P-glycoprotein (P-GP) (Homo sapiens, UniProt P08183); experiment: Evaluation as P-Gp substrate: penetration test in MDCKII-MDR1 cells with Verapamil as inhibitor; details: dog, MDCK-MDR1
Description: The preparation of the […] for the penetration test: • (1) MDCKII-MDR1 cells were cultured in the cell culture bottle. The conditions of the incubator were 37° C., 5% of CO2, and 95% of the relative humidity. When the cell growth confluence was up to 70-90%, the cells were inoculated to the transwell. • (2) Before the cell inoculation, 50 μL of the culture medium was respectively added to every well of the upper compartment of the transwell, and […] of the culture medium was added to the lower compartment. The transwell was incubated in the incubator under 37° C. and 5% CO2. […] The cell suspension was transferred to the upper compartment of the 96-well transwell, wherein each upper compartment contains 50 μL of the cell suspension. The final inoculum density was 5.45×10^5 cells/cm^2. • (5) The culture medium was replaced after inoculating for 48 h. After culturing for 4-8 days, the medium was changed every other day. • (6) The process of replacing the culture medium was as the follow. The upper compartment and the lower compartment were separated. The medium in the lower compartment was discarded, and then the medium in the upper compartment was discarded. Finally, 75 μL of fresh medium was added to each upper compartment and […] of fresh medium was added to the lower compartment.
Evaluation of the Cell Monolayer Integrity • (1) The MDCKII-MER1 cells should be totally confluent and complete the differentiation after culturing for 4-8 days. The MDCKII-MER1 cells can be used for the penetration test at this time. • (2) Millipore was used to measure the resistance of the cell monolayer, and the resistance of every well was recorded. • (3) After the measuring, the transwell was put back to the incubator. • (4) The calculation of the resistance: measured resistance (ohms)×area of the membrane=TEER value (ohm-cm^2). If TERR value was <42 ohm-cm^2, the well would not be used to the penetration test.
Penetration Test of the Drug • (1) The transwell of the MDCKII-MER1 cells was taken out from the incubator. The cell monolayer was rinsed two times by the buffer solution and incubated at 37° C. for 30 min. • (2) The transport rate of the compound from the top to the bottom was tested. […] 200 μL of the acetonitrile containing the internal standard (100 nM Alprazolam, 200 nM Labetalol, 200 nM caffeine and 2 μM Ketoprofen) was added to each sample tube. After the sample tubes were vortexed for 10 min, the sample tubes were centrifuged at 3220 g for 30 min. 100 μL of the supernatant was taken to be diluted with the same volume of the water, and the LC-MS/MS analysis was executed. Each sample was adopted to the three parallel incubation. • (8) After the cell monolayer was incubated for 2 h, the integrity of the cell monolayer was evaluated by the migration assay using the fluorescence yellow, the fluorescence yellow storage solution was diluted by the buffer solution, and the final concentration was 100 μM/L. 100 μL of the fluorescence yellow solution was added to each well of the upper compartment, and 300 μL of the buffer was added to each well of the lower compartment. After the transwell was incubated at 37° C. for 30 min, 80 µL of the solution from each well of the upper compartment and the lower compartment was respectively transferred to a new 96-well plate. ELISA (Enzyme-linked Immunosorbent Assay) reader was used to perform the fluorimetry with the excitation wavelength of 480 nm and the emission wavelength of 530 nm.
The peak area was calculated by the result of the ion chromatography. The permeability coefficient (Papp, unit: cm/s×10^−6) of the compound was calculated by the formula: […]

[3] = in the presence of specific AKR1C3 inhibitor (TH3021, 3 μmol concentration), read-out: Inhibitory effect of the proliferation of the cancer cells IC50 of +TH3021
[4] = Homo sapiens, NCI-H460, 2 h exposure, washed, further 70 h, Alamar Blue, read-out: Inhibitory effect of the proliferation of the cancer cells IC50

Sequence of P-glycoprotein (P-GP) (P08183 whole entry): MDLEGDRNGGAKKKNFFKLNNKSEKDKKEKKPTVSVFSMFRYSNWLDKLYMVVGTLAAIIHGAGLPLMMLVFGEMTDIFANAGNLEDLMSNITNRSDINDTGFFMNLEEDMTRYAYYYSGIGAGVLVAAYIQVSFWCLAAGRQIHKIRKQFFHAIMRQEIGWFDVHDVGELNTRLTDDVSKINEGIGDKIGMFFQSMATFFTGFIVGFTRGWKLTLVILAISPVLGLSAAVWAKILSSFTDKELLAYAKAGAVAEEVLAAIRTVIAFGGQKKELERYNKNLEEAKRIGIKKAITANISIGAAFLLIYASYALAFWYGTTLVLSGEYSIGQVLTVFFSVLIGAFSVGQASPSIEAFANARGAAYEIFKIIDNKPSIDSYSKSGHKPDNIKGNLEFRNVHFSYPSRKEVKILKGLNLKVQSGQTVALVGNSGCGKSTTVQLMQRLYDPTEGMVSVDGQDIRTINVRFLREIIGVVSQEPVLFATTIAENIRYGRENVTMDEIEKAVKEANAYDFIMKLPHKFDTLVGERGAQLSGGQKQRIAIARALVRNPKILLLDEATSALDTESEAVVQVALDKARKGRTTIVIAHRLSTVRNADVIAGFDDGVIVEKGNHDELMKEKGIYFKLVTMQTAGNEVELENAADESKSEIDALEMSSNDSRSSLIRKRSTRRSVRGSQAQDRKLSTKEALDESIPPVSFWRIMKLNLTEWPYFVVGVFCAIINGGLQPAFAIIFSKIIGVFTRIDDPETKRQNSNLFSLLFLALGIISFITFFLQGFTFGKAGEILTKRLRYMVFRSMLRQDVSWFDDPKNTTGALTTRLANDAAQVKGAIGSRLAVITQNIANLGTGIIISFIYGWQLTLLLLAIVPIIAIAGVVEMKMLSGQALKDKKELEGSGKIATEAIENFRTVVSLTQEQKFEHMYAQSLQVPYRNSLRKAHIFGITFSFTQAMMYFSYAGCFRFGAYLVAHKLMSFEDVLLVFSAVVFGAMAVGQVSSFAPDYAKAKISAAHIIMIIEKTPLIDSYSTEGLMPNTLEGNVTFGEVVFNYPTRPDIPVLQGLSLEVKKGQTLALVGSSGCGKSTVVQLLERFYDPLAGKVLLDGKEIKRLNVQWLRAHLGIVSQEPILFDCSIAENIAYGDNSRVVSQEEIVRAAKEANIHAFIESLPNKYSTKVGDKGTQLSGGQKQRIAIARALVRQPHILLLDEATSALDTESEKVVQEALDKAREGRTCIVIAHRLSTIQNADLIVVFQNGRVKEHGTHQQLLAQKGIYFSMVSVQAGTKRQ

O=[N+]([O-])c1ccc(C(OP(=O)(N2CC2)N2CC2)C(F)(F)F)cc1Oc1ccc(-c2ccc(F)cc2F)cc1 (stereo not shown) [Compound 14]
IC50 [1, 3]: > 1000 nM | IC50 [1, 4]: 11.4 nM | efflux ratio at 2 h [2]: 1.26

O=[N+]([O-])c1ccc(COP(=O)(N2CC2)N2CC2)cc1Oc1ccc(-c2ccc(F)cc2F)nc1 [Compound 12]
IC50 ([1]; 2 h exposure, washed, further 70 h, Alamar Blue, read-out: Inhibitory effect of the proliferation of the cancer cells IC50): < 1.5 nM | IC50 [1, 3]: 11.4 nM

O=[N+]([O-])c1ccc(COP(=O)(N2CC2)N2CC2)cc1Oc1ccc(-c2ccc(F)cc2)cc1 [Compound 2]
IC50 [1, 3]: 105 nM | IC50 [1, 4]: 1.89 nM | efflux ratio at 2 h [2]: 1.53

O=[N+]([O-])c1ccc(C(OP(=O)(N2CC2)N2CC2)C(F)(F)F)cc1Oc1ccc(-c2ccc(F)cc2)c(F)c1 (stereo not shown) [Compound 15]
IC50 [1, 4]: 6.78 nM | efflux ratio at 2 h [2]: 1.36

O=[N+]([O-])c1ccc(COP(=O)(N2CC2)N2CC2)cc1Oc1ccc(-c2ccc(F)cc2F)c(F)c1 [Compound 4]
IC50 [1, 3]: 16.3 nM | IC50 [1, 4]: 0.67 nM | efflux ratio at 2 h [2]: 0.87

O=[N+]([O-])c1ccc(C(OP(=O)(N2CC2)N2CC2)C(F)(F)F)cc1Oc1ccc(-c2ccc(F)cc2F)c(F)c1 (stereo not shown) [Compound 16]
IC50 [1, 3]: > 500 nM | IC50 [1, 4]: 7.26 nM | efflux ratio at 2 h [2]: 1.96

O=[N+]([O-])c1ccc(COP(=O)(N2CC2)N2CC2)cc1Oc1ccc(-c2ccc(F)cc2)c(F)c1 [Compound 1]
IC50 [1, 3]: 40 nM | IC50 [1, 4]: 0.87 nM | efflux ratio at 2 h [2]: 1

O=[N+]([O-])c1ccc(C(OP(=O)(N2CC2)N2CC2)C(F)(F)F)cc1Oc1ccc(-c2ccc(C(F)(F)F)cc2)nc1 (stereo not shown) [Compound 18]
IC50 [1, 3]: > 10000 nM | IC50 [1, 4]: 313 nM

O=[N+]([O-])c1ccc(COP(=O)(N2CC2)N2CC2)cc1Oc1ccc(-c2ccc(F)cn2)cc1 [Compound 10]
IC50 [1, 3]: 29.6 nM | IC50 [1, 4]: 1.15 nM | efflux ratio at 2 h [2]: 1.43

O=[N+]([O-])c1ccc(C(OP(=O)(N2CC2)N2CC2)C(F)(F)F)cc1Oc1ccc(-c2ccc(F)cn2)cc1 (stereo not shown) [Compound 19]
IC50 [1, 3]: > 10000 nM | IC50 [1, 4]: 46.8 nM

O=[N+]([O-])c1ccc(COP(=O)(N2CC2)N2CC2)cc1Oc1ccc(-c2ccc(F)cc2)nc1 [Compound 7]
IC50 [1, 3]: 19.7 nM | IC50 [1, 4]: 0.71 nM | efflux ratio at 2 h [2]: 1.54

COc1cc2nc(N3CCN(C(=O)c4ccco4)CC3)nc(N)c2cc1OC [Prazosin, reference compound]
efflux ratio at 2 h [2]: 2.87

O=[N+]([O-])c1ccc(COP(=O)(N2CC2)N2CC2)cc1Oc1ccc(Cl)nc1 [Compound 9]
IC50 [1, 3]: 56.1 nM | IC50 [1, 4]: < 1.5 nM

O=[N+]([O-])c1cc(F)c(COP(=O)(N2CC2)N2CC2)cc1Oc1ccc(-c2ccc(F)cc2)cc1 [Compound 3]
IC50 [1, 3]: 47.8 nM | IC50 [1, 4]: 1.84 nM | efflux ratio at 2 h [2]: 1.2

O=[N+]([O-])c1ccc(COP(=O)(N2CC2)N2CC2)cc1Oc1ccc(-c2ccc(F)cc2F)nc1 [Compound 8]
IC50 [1, 3]: 26.8 nM | IC50 [1, 4]: < 1.5 nM

O=[N+]([O-])c1ccc(COP(=O)(N2CC2)N2CC2)cc1Oc1ccc(C(F)(F)F)nc1 [Compound 6]
IC50 [1, 3]: 38.2 nM | IC50 [1, 4]: 0.46 nM

O=[N+]([O-])c1ccc(COP(=O)(N2CC2)N2CC2)cc1Oc1ccc(-c2ccc(F)cn2)c(F)c1 [Compound 11]
IC50 [1, 3]: 92.2 nM | IC50 [1, 4]: 0.211 nM

Cc1cc(F)ccc1-c1ccc(Oc2cc(COP(=O)(N3CC3)N3CC3)ccc2[N+](=O)[O-])cc1F [Compound 5]
IC50 [1, 3]: 5.04 nM | IC50 [1, 4]: 0.59 nM | efflux ratio at 2 h [2]: 1.69

Cc1ccc(NC(=O)c2ccc(CN3CCN(C)CC3)cc2)cc1Nc1nccc(-c2cccnc2)n1 [Imatinib, reference compound]
efflux ratio at 2 h [2]: 18.1

O=[N+]([O-])c1ccc(C(OP(=O)(N2CC2)N2CC2)C(F)(F)F)cc1Oc1ccc(-c2ccc(F)cc2)nc1 (stereo not shown) [Compound 17]
IC50 [1, 3]: > 10000 nM | IC50 [1, 4]: 35.5 nM

O=[N+]([O-])c1ccc(C(OP(=O)(N2CC2)N2CC2)C(F)(F)F)cc1Oc1cccc(-c2ccc(F)cc2)c1 (stereo not shown) [Compound 13]
IC50 [1, 3]: 1890 nM | IC50 [1, 4]: 30 nM
